Test results published in patent US7129246B2, “N-adamantlmethyl derivatives and intermediates as pharmaceutical compositions and processes for their preparation” (AstraZeneca AB, priority 2001, dated 2006).
Structures can show the parent of a compound that is named as a salt.

Experiments:
[1] = target: T1, P2X7 receptor (Homo sapiens, UniProt Q99572); assay: P2X7 receptor antagonist test: bbATP-induced ethidium bromide fluorescence in THP-1 cells; assay type: cell-based; settings: bbATP agonist, 37° C. for one hour, read-out: pIC50 (negative logarithm of the concentration of test compound necessary to reduce the bbATP agonist activity by 50%) (converted)
T1 construct: 200 μl of a suspension of THP-1 cells; endogenous in cells; host or cells: THP-1 cells
T1 sequence (Q99572 1-595): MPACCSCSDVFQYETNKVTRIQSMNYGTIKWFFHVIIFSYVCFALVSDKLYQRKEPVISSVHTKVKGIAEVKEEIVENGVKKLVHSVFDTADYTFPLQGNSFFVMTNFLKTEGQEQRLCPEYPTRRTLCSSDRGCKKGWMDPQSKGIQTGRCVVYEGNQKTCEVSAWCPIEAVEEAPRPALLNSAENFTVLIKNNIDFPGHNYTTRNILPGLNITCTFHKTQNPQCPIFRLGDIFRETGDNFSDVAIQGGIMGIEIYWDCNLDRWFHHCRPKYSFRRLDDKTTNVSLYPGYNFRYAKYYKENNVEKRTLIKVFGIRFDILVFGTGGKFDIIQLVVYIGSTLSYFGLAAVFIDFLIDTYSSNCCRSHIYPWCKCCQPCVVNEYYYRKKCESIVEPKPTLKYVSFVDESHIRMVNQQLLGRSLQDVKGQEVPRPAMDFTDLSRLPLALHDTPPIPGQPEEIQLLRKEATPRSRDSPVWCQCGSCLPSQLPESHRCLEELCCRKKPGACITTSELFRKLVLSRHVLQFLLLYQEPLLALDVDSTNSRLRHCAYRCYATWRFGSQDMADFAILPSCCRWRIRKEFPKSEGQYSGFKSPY
Source text: Certain compounds such as benzoylbenzoyl adenosine triphosphate (bbATP) are known to be agonists of the P2X7 receptor, effecting the formation of pores in the plasma membrane (Drug Development Research (1996), 37(3) p. 126). Consequently, when the receptor is activated using bbATP in the presence of ethidium bromide (a fluorescent DNA probe), an increase in the fluorescence of intracellular DNA-bound ethidium bromide is observed. The increase in fluorescence can be used as a measure of P2X7 receptor activation and therefore to quantify the effect of a compound on the P2X7 receptor.
In this manner, each of the title compounds of the Examples was tested for antagonist activity at the P2X7 receptor. Thus, the test was performed in 96-well flat bottomed microtitre plates, the wells being filled with 250 μl of test solution comprising 200 μl of a suspension of THP-1 cells (2.5×10^6 cells/ml) containing 10^−4M ethidium bromide, 25 μl of a high potassium buffer solution containing 10^−5M bbATP, and 25 μl of the high potassium buffer solution containing 3×10^−5M test compound. The plate was covered with a plastics sheet and incubated at 37° C. for one hour. The plate was then read in a Perkin-Elmer fluorescent plate reader, excitation 520 nm, emission 595 nm, slit widths: Ex 15 nm, Em 20 nm. […]

| melting point | IC50 [1] | Structure (SMILES) |
| --- | --- | --- |
| 84 to 85 °C | – | O=C(NCC12CC3CC(CC(C3)C1)C2)c1cc(CCCNCCCO)ncc1Cl [Example 1, N-(1-Adamantylmethyl)-5-chloro-2-{3-[(3-hydroxypropyl)-amino]propyl}isonicotinamide] |
| 242 to 244 °C | – | O=C(NCC12CC3CC(CC(C3)C1)C2)c1cc(CCNCCO)ncc1Cl (as salt: hydrochloride) [Example 32, N-(1-Adamantylmethyl)-5-chloro-2-{3-[(2-hydroxyethyl)amino]ethyl}isonicotinamide dihydrochloride] |
| 217 to 219 °C | – | O=C(NCC12CC3CC(CC(C3)C1)C2)c1cc(CCCNC[C@@H](O)CO)ncc1Cl (as salt: hydrochloride) [Example 16, N-(1-Adamantylmethyl)-5-chloro-2-(3-{[(2R)-2,3-dihydroxypropyl]amino}propyl)isonicotinamide, dihydrochloride] |
| 105 to 107 °C | – | O=C(NCC12CC3CC(CC(C3)C1)C2)c1cc(CCCNCCCO)cnc1Cl [Example 3, N-(1-Adamantylmethyl)-2-chloro-5-{3-[(3-hydroxypropyl)amino]propyl}nicotinamide] |
| 236 to 238 °C | – | CC(C)(O)CNCCCc1cc(C(=O)NCC23CC4CC(CC(C4)C2)C3)c(Cl)cn1 (as salt: hydrochloride) [Example 19, N-(1-Adamantylmethyl)-5-chloro-2-{3-[(2-hydroxy-2-methylpropyl)amino]propyl}isonicotinamide dihydrochloride] |
| 224 to 226 °C | – | C[C@@H](O)CNCCCc1cc(C(=O)NCC23CC4CC(CC(C4)C2)C3)c(Cl)cn1 (as salt: hydrochloride) [Example 28, N-(1-Adamantylmethyl)-5-chloro-2-(3-{[(2R)-2-hydroxypropyl]amino}propyl)isonicotinamide, dihydrochloride] |
| 210 to 212 °C | – | CNCCCNCCCc1cc(C(=O)NCC23CC4CC(CC(C4)C2)C3)c(Cl)cn1 (as salt: trifluoroacetate) [Example 22, N-(1-Adamantylmethyl)-5-chloro-2-(3-{[3-(methylamino)propyl]amino}propyl)isonicotinamide bis(trifluoroacetate)] |
| 210 to 212 °C | – | CNCCCc1cc(C(=O)NCC23CC4CC(CC(C4)C2)C3)c(Cl)cn1 (as salt: hydrochloride) [Example 34, N-(1-Adamantylmethyl)-5-chloro2-[3-(methylamino)propyl]isonicotinamide hydrochloride] |
| 216 to 219 °C | – | CNCCNCCCc1cc(C(=O)NCC23CC4CC(CC(C4)C2)C3)c(Cl)cn1 (as salt: hydrochloride) [Example 21, N-(1-Adamantylmethyl)-5-chloro-2-(3-{[2-(methylamino)ethyl]amino}propyl)isonicotinamide dihydrochloride] |
| – | 15.8 nM | CN(CCO)CCCc1cc(C(=O)NCC23CC4CC(CC(C4)C2)C3)c(Cl)cn1 [Example 26, N-(1-Adamantylmethyl)-5chloro-2-{3-[(2-hydroxyethyl)(methyl)amino]propyl}isonicotinamide dihydrochloride] |
| 201 to 203 °C | – | O=C(NCC12CC3CC(CC(C3)C1)C2)c1cc(CCCNC(CO)CO)ncc1Cl (as salt: hydrochloride) [Example 25, N-(1-Adamantylmethyl)-5-chloro-2-(3-{[2-hydroxy-1-(hydroxymethyl)ethyl]amino}propyl)isonicotinamide dihydrochloride] |
| 231 to 233 °C | – | O=C(NCC12CC3CC(CC(C3)C1)C2)c1cc(CCCNCCNCCO)ncc1Cl (as salt: hydrochloride) [Example 23, N-(1-Adamantylmethyl)-5-chloro-2-[3-({2-[(2-hydroxyethyl)amino]ethyl}amino)propyl]isonicotinamide dihydrochloride] |
| 289 to 292 °C | – | O=C(NCC12CC3CC(CC(C3)C1)C2)c1cc(CNCCNCCO)ncc1Cl (as salt: hydrochloride) [Example 30, N-(1-Adamantylmethyl)-5-chloro-2-[({2-[(2-hydroxyethyl)amino]ethyl}amino)methyl]isonicotinamide dihydrochloride] |
| 206 to 208 °C | – | CN(CCO)CCCc1cc(C(=O)NCC23CC4CC(CC(C4)C2)C3)c(Cl)cn1 (as salt: hydrochloride) [Example 26, N-(1-Adamantylmethyl)-5chloro-2-{3-[(2-hydroxyethyl)(methyl)amino]propyl}isonicotinamide dihydrochloride] |
| 206 to 208 °C (dec.) | – | CCNCCCc1cc(C(=O)NCC23CC4CC(CC(C4)C2)C3)c(Cl)cn1 (as salt: hydrochloride) [Example 7, N-(1-Adamantylmethyl)-5-chloro-2-[3-(ethylamino)propyl]isonicotinamide hydrochloride] |
| 240 to 242 °C | – | O=C(NCC12CC3CC(CC(C3)C1)C2)c1cc(CCNCCCO)ncc1Cl (as salt: hydrochloride) [Example 33, N-(1-Adamantylmethyl)-5-chloro-2-{3-[(3-hydroxypropyl)amino]ethyl}isonicotinamide dihydrochloride] |
| – | 79.4 nM | O=C(NCC12CC3CC(CC(C3)C1)C2)c1cc(OCCNCCCO)ncc1Cl [Example 12, N-(1-Adamantylmethyl)-5-chloro-2-{2-[(3-hydroxypropyl)amino]ethoxy}isonicotinamide, hydrochloride] |
| 205 to 208 °C | – | C[C@H](CO)NCCCc1cc(C(=O)NCC23CC4CC(CC(C4)C2)C3)c(Cl)cn1 (as salt: hydrochloride) [Example 9, N-(1-Adamantylmethyl)-5-chloro-2-(3-{[(1R)-2-hydroxy-1-methylethyl]amino}propyl)isonicotinamide, dihydrochloride] |
| 285 to 287 °C | – | CNCCCNCc1cc(C(=O)NCC23CC4CC(CC(C4)C2)C3)c(Cl)cn1 (as salt: hydrochloride) [Example 29, N-(1-Adamantylmethyl)-5chloro-2-({[3-(methylamino)propyl]amino}methyl)isonicotinamide dihydrochloride] |
| 204 to 205 °C (dec.) | – | O=C(NCC12CC3CC(CC(C3)C1)C2)c1cc(CCCNCCO)ncc1Cl (as salt: hydrochloride) [Example 11, N-(1-Adamantylmethyl)5-chloro-2-{3-[(2-hydroxyethyl)amino]propyl}-isonicotinamide hydrochloride] |
| 150 °C (dec.) | – | NCCCc1cc(C(=O)NCC23CC4CC(CC(C4)C2)C3)c(Cl)cn1 (as salt: hydrochloride) [Example 6, N-(1-Adamantylmethyl)-2-(3-aminopropyl)-5-chloroisonicotinamide hydrochloride] |
| 259 to 262 °C | – | CNCCNCc1cc(C(=O)NCC23CC4CC(CC(C4)C2)C3)c(Cl)cn1 (as salt: hydrochloride) [Example 31, N-(1-Adamantylmethyl)-5-chloro-2-({[2-(methylamino)ethyl]amino}methyl)isonicotinamide dihydrochloride] |
| 205 to 208 °C | – | C[C@@H](CO)NCCCc1cc(C(=O)NCC23CC4CC(CC(C4)C2)C3)c(Cl)cn1 (as salt: hydrochloride) [Example 10, N-(1-Adamantylmethyl)-5-chloro-2-(3-{[(1S)-2-hydroxy-1-methylethyl]amino}propyl)isonicotinamide, dihydrochloride] |
